# Test results as given in ChEMBL document CHEMBL1201862, “PubChem BioAssay data set” (2004).
# Calls of active or inactive are those of the source.
# Key:
# [1] = target: Cell division cycle 7-related protein kinase (Homo sapiens, UniProt O00311); format: functional;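 note: value obtained from a kinome-wide kinase panel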
# [2] = target: cAMP-dependent protein kinase catalytic subunit alpha (Homo sapiens, UniProt P17612); format: functional
# [3] = target: Glycogen synthase kinase-3 beta (Homo sapiens, UniProt P49841); format: functional;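 note: value comes from a broad kinome profiling panel, with GSK3B as the panel member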
# [4] = target: Homeodomain-interacting protein kinase 2 (Homo sapiens, UniProt Q9H2X6); format: functional;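 note: measured within a kinome-wide kinase profiling panel, HIPK2 being one panel member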
# [5] = target: Interleukin-1 receptor-associated kinase 4 (Homo sapiens, UniProt Q9NWZ3); format: functional
# [6] = target: Serine/threonine-protein kinase pim-1 (Homo sapiens, UniProt P11309); format: functional
# [7] = target: Mitogen-activated protein kinase kinase kinase kinase 4 (Homo sapiens, UniProt O95819); format: functional
# [8] = target: Sphingosine 1-phosphate receptor 4 (Homo sapiens, UniProt O95977); experiment: Late-stage fluorescence-based dose-response cell-based counterscreen assay to identify agonists of the Sphingosine 1-Phosphate Receptor 3 (S1P3): Sphingosine 1-Phosphate Receptor 4 (S1P4) agonist assay.; format: functional
# [9] = target: Sphingosine 1-phosphate receptor 2 (Homo sapiens, UniProt O95136); experiment: Late-stage fluorescence-based dose-response cell-based counterscreen assay to identify agonists of the Sphingosine 1-Phosphate Receptor 3 (S1P3): Sphingosine 1-Phosphate Receptor 2 (S1P2) agonist assay.; format: functional
# [10] = target: T1, Replicative DNA helicase DnaB (Mycobacterium tuberculosis, UniProt P9WMR3); experiment: DnaB intein splicing inhibitors, dose response, biochemical, cell-free fluorescence (AID 449749); format: functional
# T1 sequence (P9WMR3 whole entry): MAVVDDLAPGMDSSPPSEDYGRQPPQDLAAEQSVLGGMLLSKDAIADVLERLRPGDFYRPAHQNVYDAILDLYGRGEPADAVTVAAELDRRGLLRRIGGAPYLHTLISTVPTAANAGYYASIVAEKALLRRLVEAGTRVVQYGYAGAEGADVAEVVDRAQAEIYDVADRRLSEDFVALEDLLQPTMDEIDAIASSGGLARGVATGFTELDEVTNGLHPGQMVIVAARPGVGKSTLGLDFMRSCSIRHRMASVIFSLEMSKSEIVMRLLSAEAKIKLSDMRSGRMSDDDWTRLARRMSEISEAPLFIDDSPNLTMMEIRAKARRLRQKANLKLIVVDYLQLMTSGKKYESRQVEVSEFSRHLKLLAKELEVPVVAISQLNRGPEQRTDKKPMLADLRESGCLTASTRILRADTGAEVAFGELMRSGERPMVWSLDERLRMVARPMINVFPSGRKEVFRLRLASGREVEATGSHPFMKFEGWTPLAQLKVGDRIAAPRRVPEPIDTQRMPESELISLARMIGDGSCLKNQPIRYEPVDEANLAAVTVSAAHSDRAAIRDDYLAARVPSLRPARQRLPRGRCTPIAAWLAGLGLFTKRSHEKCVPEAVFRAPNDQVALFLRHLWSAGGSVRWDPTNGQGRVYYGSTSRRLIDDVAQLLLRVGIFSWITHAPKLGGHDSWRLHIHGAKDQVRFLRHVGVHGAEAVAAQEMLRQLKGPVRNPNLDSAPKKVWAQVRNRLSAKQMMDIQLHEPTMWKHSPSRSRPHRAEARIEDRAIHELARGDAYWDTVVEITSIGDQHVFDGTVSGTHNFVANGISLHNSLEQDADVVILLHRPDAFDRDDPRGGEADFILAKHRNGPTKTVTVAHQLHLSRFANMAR
# [11] = target: G-protein coupled receptor 55 (Homo sapiens, UniProt Q9Y2T6); experiment: selective activators of receptor GPR55 – imaging, U2OS cells, beta-arrestin-GFP redistribution, primary screen (AID 1961); format: functional
# [12] = target: T2, Protein RecA (Mycobacterium tuberculosis, UniProt P9WHJ3); experiment: Fluorescence Cell-Free Homogeneous Dose Retest to Identify Inhibitors of RecA-Intein Splicing Activity. [Related pubchem assays (depositor defined):AID2097, AID2223, AID489010, AID492950]; format: functional
# T2 sequence (P9WHJ3 whole entry): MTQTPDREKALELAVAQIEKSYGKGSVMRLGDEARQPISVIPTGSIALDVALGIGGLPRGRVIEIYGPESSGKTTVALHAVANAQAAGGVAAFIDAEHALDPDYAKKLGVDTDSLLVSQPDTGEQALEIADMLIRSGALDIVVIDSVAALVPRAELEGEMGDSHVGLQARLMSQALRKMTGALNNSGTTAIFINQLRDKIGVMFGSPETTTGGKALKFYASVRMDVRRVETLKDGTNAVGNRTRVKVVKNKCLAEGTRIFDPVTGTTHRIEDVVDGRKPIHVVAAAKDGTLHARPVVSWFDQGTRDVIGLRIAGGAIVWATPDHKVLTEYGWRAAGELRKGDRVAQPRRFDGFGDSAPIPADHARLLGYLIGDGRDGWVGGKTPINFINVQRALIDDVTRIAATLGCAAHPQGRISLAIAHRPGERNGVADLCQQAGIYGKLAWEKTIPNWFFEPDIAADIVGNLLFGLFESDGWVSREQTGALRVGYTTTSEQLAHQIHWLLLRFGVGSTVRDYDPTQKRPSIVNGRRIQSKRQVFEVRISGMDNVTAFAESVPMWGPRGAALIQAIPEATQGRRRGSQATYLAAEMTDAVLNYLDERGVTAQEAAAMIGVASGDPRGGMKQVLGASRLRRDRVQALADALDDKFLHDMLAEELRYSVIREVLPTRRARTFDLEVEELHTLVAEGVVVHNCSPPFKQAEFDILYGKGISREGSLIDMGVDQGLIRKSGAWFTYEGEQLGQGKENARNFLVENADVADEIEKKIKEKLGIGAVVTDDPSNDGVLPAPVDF
# [13] = cAMP pathway inhibition in counterscreen cell line – TR-FRET cAMP detection, counter-screen for MC4R biased antagonist project, dose response (AID 602305); format: functional, cell-based;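 note: U2OS cells stimulated with forskolin near its EC80 as the cAMP inducer; potency is for inhibition of forskolin-stimulated cAMP signaling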
# [14] = target: Melanocortin receptor 4 (Homo sapiens, UniProt P32245); experiment: inhibitors of MC4R cAMP signaling – cell-based, TR-FRET, biased antagonists, dose response (AID 602298); format: functional;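 note: antagonist potency against agonist-stimulated cAMP production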
# [15] = Intein inhibitors as potential Tuberculosis drugs, a cytotoxicity screen. [Related pubchem assays (depositor defined):AID2221, AID2223, AID434968, AID435010, AID449749, AID449750, AID489010]; format: functional
# [16] = target: Serine/threonine-protein kinase D3 (Homo sapiens, UniProt O94806); format: functional;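 note: determined within a kinase panel screen, with PRKCN as the panel member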
# [17] = target: Mitogen-activated protein kinase 8 (Homo sapiens, UniProt P45983); format: functional;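 note: value comes from one member of a kinome-wide kinase profiling panel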
# [18] = target: Aurora kinase B (Homo sapiens, UniProt Q96GD4); format: functional
# [19] = target: Vascular endothelial growth factor receptor 2 (Homo sapiens, UniProt P35968); format: functional
# [20] = target: Aurora kinase A (Homo sapiens, UniProt O14965); format: functional;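 note: value from the Navigating the Kinome kinase panel profiling, panel entry STK6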
# [21] = target: Mitogen-activated protein kinase 9 (Homo sapiens, UniProt P45984); format: functional;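 note: value from a kinome panel profiling assay, MAPK9 panel entry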
# [22] = system: CHO-K1; experiment: (§1) Counterscreen for antagonists of the orexin 1 receptor (OX1R; HCRTR1): Homogeneous time resolved fluorescence (HTRF)-based cell-based dose response assay to identify antagonists of the parental CHO-K1 cell line. [Related pubchem assays (depositor defined):AID434989, AID435008, AID463079, AID485270, AID492963, AID492964, AID492965, AID493232, AID504699, AID504701]; format: functional; conditions: Cricetulus griseus
# [23] = as §1, with “Fluorescence-based” for “Homogeneous time resolved fluorescence (HTRF)-based”, “cell-based high throughput” for “cell-based”, “CHO” for “CHO-K1”; format: functional
# [24] = target: T3, Orexin receptor type 2 (Homo sapiens, UniProt O43614); experiment: Counterscreen assay for antagonists of the orexin 1 receptor (OX1R; HCRTR1): Fluorescence-based cell-based dose response assay for antagonists of the orexin 2 receptor (OX2R; HCRTR2), run by assay provider.; format: functional
# [25] = target: T4, Orexin/Hypocretin receptor type 1 (Homo sapiens, UniProt O43613); experiment: Homogeneous Time Resolved Fluorescence (HTRF)-based cell-based high throughput dose response assay for antagonists of the orexin 1 receptor (OX1R; HCRTR1). [Related pubchem assays (depositor defined):AID434989, AID435008, AID463079, AID485270, AID492963, AID492964, AID492965, AID493232, AID504717, AID504718]; format: functional
# T4 sequence (O43613 whole entry): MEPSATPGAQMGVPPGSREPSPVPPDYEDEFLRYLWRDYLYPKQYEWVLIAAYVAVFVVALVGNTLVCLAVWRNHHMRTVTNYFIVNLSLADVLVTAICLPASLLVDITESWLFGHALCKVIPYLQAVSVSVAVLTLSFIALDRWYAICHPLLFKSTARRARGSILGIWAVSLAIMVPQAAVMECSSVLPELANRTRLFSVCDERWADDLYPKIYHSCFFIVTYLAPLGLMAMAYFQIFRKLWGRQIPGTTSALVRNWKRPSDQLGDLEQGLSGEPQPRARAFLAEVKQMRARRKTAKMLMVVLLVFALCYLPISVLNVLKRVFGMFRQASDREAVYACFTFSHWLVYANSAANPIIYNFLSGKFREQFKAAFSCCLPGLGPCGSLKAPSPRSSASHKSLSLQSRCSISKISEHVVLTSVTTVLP
# [26] = target: T4, Orexin/Hypocretin receptor type 1; experiment: Fluorescence-based cell-based high throughput dose response assay for antagonists of the orexin 1 receptor (OX1R; HCRTR1). [Related pubchem assays (depositor defined):AID434989, AID435008, AID463079, AID485270, AID492963, AID492964, AID492965, AID493232, AID504717, AID504718]; format: functional
# [27] = target: T3, Orexin receptor type 2; experiment: Counterscreen assay for antagonists of the orexin 1 receptor (OX1R; HCRTR1): Homogeneous Time Resolved Fluorescence (HTRF)-based cell-based dose response assay for antagonists of the orexin 2 receptor (OX2R; HCRTR2), run by assay provider.; format: functional
# 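Throughout, for CC50: cells exposed to compound for 72 hours before luminescence readout.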
# T3 sequence (O43614 whole entry): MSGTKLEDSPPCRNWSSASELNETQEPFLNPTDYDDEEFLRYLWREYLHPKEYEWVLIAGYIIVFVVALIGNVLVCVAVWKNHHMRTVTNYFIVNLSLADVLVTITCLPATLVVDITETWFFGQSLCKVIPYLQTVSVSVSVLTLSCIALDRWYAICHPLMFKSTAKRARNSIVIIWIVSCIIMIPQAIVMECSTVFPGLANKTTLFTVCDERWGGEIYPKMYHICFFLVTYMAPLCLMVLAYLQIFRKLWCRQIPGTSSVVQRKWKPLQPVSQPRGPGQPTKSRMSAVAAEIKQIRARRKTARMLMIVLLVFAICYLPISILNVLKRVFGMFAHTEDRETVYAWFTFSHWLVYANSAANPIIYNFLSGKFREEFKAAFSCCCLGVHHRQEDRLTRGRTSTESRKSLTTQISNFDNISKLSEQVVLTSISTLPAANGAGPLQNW
# Serine/threonine-protein kinase D3, sequence (O94806 whole entry): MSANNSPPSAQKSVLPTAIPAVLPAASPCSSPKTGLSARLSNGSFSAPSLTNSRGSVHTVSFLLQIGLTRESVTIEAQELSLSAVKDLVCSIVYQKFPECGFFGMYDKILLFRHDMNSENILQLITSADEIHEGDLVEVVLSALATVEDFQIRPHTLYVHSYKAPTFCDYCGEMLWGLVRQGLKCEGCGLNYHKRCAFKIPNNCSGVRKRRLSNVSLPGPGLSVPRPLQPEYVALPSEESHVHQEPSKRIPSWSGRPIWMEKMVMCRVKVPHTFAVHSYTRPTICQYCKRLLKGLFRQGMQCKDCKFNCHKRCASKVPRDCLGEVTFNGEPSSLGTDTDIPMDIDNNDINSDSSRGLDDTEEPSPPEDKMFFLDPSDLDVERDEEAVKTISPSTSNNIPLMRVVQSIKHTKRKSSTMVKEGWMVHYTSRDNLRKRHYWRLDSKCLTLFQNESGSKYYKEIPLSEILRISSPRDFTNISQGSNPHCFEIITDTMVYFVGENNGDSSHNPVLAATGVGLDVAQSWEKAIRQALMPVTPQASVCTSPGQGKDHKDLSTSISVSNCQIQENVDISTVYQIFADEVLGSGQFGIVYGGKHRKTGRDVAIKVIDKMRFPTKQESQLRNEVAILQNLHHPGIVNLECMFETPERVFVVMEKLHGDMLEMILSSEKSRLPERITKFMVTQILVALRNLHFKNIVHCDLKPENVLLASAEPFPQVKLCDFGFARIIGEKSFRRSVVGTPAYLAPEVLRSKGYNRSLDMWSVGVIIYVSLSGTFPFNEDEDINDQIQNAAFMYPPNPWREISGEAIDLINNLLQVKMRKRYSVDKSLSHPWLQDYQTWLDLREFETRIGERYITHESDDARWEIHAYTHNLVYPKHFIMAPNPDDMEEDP
# Sphingosine 1-phosphate receptor 4, sequence (O95977 whole entry): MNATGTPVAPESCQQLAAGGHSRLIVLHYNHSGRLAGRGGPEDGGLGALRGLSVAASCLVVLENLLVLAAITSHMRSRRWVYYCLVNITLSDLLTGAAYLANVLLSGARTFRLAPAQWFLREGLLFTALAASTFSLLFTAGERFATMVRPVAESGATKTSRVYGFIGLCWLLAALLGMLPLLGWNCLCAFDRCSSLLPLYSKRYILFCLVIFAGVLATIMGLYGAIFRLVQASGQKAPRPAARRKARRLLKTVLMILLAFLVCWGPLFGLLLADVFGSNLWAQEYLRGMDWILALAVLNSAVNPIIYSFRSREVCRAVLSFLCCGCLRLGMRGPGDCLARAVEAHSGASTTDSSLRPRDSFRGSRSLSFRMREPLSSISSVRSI
# Aurora kinase A, sequence (O14965 whole entry): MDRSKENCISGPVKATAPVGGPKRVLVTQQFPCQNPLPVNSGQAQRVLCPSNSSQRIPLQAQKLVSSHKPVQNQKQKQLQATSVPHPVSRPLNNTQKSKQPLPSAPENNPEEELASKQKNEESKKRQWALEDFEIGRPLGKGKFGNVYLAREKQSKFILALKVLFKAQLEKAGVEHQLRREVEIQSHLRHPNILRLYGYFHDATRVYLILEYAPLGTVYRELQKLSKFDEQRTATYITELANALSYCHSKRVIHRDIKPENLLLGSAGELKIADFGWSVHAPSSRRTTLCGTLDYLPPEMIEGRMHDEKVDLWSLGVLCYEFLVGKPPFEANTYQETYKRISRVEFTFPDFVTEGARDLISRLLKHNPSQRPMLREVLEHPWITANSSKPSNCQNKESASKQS
# Melanocortin receptor 4, sequence (P32245 whole entry): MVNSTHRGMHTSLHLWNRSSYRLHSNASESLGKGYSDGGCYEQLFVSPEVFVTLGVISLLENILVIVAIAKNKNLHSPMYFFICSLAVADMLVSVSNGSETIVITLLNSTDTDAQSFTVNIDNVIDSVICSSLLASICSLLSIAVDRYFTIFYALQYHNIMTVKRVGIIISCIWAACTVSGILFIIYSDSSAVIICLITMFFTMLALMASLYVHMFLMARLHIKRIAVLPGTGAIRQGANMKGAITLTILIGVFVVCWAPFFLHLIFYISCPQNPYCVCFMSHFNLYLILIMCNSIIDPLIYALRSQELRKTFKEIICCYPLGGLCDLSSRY
# Vascular endothelial growth factor receptor 2, sequence (P35968 whole entry): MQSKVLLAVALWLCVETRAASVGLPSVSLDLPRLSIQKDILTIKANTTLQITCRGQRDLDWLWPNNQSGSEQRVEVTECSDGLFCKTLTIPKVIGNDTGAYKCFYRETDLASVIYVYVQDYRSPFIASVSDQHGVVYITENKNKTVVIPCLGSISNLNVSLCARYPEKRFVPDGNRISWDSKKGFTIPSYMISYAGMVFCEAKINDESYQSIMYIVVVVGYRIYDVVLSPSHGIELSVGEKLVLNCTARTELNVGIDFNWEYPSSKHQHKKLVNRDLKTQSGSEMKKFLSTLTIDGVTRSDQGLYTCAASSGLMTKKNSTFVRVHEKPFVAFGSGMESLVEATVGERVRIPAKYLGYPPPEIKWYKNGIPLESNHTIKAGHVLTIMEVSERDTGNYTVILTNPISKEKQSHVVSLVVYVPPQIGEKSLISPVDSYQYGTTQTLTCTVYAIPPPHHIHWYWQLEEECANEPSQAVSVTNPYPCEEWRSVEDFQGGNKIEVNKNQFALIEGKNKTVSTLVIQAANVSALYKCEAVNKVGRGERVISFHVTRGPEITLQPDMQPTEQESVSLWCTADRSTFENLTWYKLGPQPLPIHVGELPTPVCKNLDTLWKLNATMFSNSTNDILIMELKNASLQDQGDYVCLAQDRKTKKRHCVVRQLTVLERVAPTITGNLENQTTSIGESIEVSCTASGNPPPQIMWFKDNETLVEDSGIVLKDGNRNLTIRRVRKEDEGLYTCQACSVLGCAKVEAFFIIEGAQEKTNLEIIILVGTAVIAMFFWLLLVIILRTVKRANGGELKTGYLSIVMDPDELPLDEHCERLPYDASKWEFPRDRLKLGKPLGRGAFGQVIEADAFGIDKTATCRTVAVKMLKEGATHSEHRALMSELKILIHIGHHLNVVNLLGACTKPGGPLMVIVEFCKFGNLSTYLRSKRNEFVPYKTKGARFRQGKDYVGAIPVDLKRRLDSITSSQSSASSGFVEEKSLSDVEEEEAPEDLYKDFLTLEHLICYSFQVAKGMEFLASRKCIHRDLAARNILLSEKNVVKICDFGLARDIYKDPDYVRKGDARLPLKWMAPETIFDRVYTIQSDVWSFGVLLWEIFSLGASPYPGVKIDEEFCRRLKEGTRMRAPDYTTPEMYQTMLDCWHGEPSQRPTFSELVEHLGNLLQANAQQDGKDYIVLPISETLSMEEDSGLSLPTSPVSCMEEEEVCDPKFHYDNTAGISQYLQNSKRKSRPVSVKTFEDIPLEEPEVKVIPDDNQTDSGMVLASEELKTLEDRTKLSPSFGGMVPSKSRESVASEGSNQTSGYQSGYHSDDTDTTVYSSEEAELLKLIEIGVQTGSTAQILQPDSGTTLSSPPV
# Cell division cycle 7-related protein kinase, sequence (O00311 whole entry): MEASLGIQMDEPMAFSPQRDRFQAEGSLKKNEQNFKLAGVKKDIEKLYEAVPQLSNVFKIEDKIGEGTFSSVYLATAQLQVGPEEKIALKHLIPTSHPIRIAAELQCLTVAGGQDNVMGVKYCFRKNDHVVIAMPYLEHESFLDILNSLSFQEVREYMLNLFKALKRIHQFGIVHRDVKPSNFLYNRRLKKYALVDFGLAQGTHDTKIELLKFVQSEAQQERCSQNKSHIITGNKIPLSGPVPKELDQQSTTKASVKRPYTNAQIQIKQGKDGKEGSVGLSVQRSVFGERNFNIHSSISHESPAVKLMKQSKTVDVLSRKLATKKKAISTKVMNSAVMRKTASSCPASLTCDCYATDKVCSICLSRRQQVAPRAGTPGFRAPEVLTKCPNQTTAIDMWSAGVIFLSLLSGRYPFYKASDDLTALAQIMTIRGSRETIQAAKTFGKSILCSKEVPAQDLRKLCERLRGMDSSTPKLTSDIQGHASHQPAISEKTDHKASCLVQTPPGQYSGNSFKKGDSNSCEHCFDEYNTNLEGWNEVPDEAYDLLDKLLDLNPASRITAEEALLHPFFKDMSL
# Mitogen-activated protein kinase 8, sequence (P45983 whole entry): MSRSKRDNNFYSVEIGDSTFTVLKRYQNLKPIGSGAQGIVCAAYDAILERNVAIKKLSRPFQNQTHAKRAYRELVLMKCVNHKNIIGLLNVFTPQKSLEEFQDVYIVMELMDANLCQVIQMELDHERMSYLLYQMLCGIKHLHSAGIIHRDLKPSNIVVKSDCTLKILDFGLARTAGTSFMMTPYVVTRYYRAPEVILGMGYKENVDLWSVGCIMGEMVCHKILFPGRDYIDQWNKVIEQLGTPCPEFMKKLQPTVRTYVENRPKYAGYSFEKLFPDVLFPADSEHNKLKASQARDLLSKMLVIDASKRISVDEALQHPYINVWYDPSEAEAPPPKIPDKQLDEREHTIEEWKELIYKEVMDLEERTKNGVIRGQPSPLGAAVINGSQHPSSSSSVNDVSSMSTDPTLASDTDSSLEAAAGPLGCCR
structure (smiles),measurement,setting,value
Cc1n[nH]c2ccc(-c3cncc(OCCNS(C)(=O)=O)c3)cc12,Ki,[1],0.0631 µM (active)
same,Ki,[2],6.31 µM (active)
same,Ki,[3],1 µM (active)
same,Ki,[4],1 µM (active)
same,Ki,[5],3.98 µM (active)
same,Ki,[6],5.01 µM (active)
same,Ki,[7],0.0794 µM (active)
CCN(CC)C(=O)c1cc(C2CC2)on1,EC50,[8],> 50 µM (inactive)
same,EC50,[9],> 50 µM (inactive)
Cc1ccc2c(c1)c1c3n2CCN(C(=O)CCl)C3CCC1 (configuration not stated),AC50,[10],2.05 µM (active)
same,EC50,[11],> 32 µM (inactive)
same,EC50,[12],1.19 µM (active)
same,IC50,[13],> 64.6 µM (inactive)
same,IC50,[14],> 64.6 µM (inactive)
same,CC50,[15],24.7 µM (active)
CCOc1nc(NC(=O)C(C)C)cc(N)c1C#N,Ki,[16],7.94 µM (active)
same,Ki,[17],1.26 µM (active)
O=S(=O)(Nc1ccc2c(c1)C(=NO)c1ccccc1-2)c1ccccc1F,Ki,[18],0.02 µM (active)
same,Ki,[19],0.794 µM (active)
same,Ki,[20],0.794 µM (active)
CC(C)(C)c1cc(NC(=O)c2cc3ccccc3s2)n(-c2cccc(OCC(=O)O)c2)n1,Ki,[21],2 µM (active)
O=C(C1CCCN1S(=O)(=O)c1cccc2cccnc12)N1CCn2c1nc1ccccc12 (configuration not stated),IC50,[22],> 66.2 µM (inactive)
same,IC50,[23],> 49.7 µM (inactive)
same,IC50,[24],> 88.8 µM (inactive)
same,IC50,[25],0.153 µM (active)
same,IC50,[26],3.36 µM (active)
same,IC50,[27],9.68 µM (active)
